Results from patent US20020137929A1, “1 - (3-heterocyclylphenyl) isothiourea, -isourea, -guanidine and -amidine herbicidal agents” (Intellectual Property Department, BASF Aktiengesellschaft, priority 1998, published 2002).

Experiments:
ABUTH (Velvetleaf) [1] = test: Postemergence herbicidal evaluation; type: in vivo, Abutilon theophrasti; conditions: postemergence
Method in brief: (§1)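 Compound is applied as a foliar spray to seedlings about two weeks old, formulated in equal parts acetone and water with 0.5% TWEEN 20 and delivered at 40 psi to give about 0.0156–0.500 kg per hectare. Injury is rated visually 0–9 after four to five weeks.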

[2] = system: CHEAL (Lambsquarters, Common); test: Postemergence herbicidal evaluation; type: in vivo, Chenopodium album; conditions: postemergence
Method in brief: as §1

[3] = system: IPOHE (Morningglory, Ivyleaf); test: Postemergence herbicidal evaluation; type: in vivo, Ipomoea hederacea; conditions: postemergence
Method in brief: as §1

ECHCG (Barnyardgrass) [4] = test: Postemergence herbicidal evaluation; type: in vivo, Echinochloa crus-galli; conditions: postemergence
Method in brief: as §1

SETVI (Foxtail, Green) = test: Postemergence herbicidal evaluation; type: in vivo, Setaria viridis; conditions: postemergence
Method in brief: as §1

ORYSAT (Rice, Tebonnet) = test: Postemergence herbicidal evaluation; type: in vivo, Oryza sativa, (L.) Tebonnet; conditions: postemergence
Method in brief: as §1

ZEAMX (Corn, Field) [5] = test: Postemergence herbicidal evaluation; type: in vivo, Zea mays; conditions: postemergence
Method in brief: as §1

ABUTH (Velvetleaf) [6] = test: Preemergence herbicidal evaluation; type: in vivo, Abutilon theophrasti; conditions: rated 4-5 weeks after treatment
Method in brief: (§2)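 Visual 0-9 rating vs control (stand, vigor, malformation, size, chlorosis, overall appearance), scored 4-5 wk after spraying. Seeded soil cups were treated preemergence with compound in aqueous acetone, ~0.0156-0.500 kg/ha equivalent.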

CASOB (Sicklepod) = test: Preemergence herbicidal evaluation; type: in vivo, Cassia obtusifolia; conditions: rated 4-5 weeks after treatment
Method in brief: as §2

[7] = system: CHEAL (Lambsquarters, Common); test: Preemergence herbicidal evaluation; type: in vivo, Chenopodium album; conditions: rated 4-5 weeks after treatment
Method in brief: as §2

[8] = system: IPOHE (Morningglory, Ivyleaf); test: Preemergence herbicidal evaluation; type: in vivo, Ipomoea hederacea; conditions: rated 4-5 weeks after treatment
Method in brief: as §2

ECHCG (Barnyardgrass) [9] = test: Preemergence herbicidal evaluation; type: in vivo, Echinochloa crus-galli; conditions: rated 4-5 weeks after treatment
Method in brief: as §2

[10] = system: GLXMAW (Soybean, Williams); test: Preemergence herbicidal evaluation; type: in vivo, Glycine max, (L.) Merr. cv Williams; conditions: rated 4-5 weeks after treatment
Method in brief: as §2

[11] = system: TRZAWR (Wheat, Winter, cv Riband); test: Preemergence herbicidal evaluation; type: in vivo, Triticum aestivum; conditions: rated 4-5 weeks after treatment
Method in brief: as §2

ZEAMX (Corn, Field) [12] = test: Preemergence herbicidal evaluation; type: in vivo, Zea mays; conditions: rated 4-5 weeks after treatment
Method in brief: as §2

With `CCOC(=O)CN1C(=O)C(OC)SC1=Nc1cc(-n2c(=O)cc(C(F)(F)F)n(C)c2=O)c(F)cc1Cl` (stereo not shown) [Compound 160, Ethyl 2-{{2-chloro-5-[3,6-dihydro-3-methyl-2,6-dioxo-4-(trifluoromethyl)-1(2H)-pyrimidinyl]-4-fluorophenyl}imino}-5-methoxy-4-oxo-3-thiazolidineacetate] the “Herbicidal rating ABUTH” value (ABUTH (Velvetleaf) [1]; rate 0.0156 kg/ha) was 9.0, the “Herbicidal rating ABUTH” value (ABUTH (Velvetleaf) [1]; rate 0.0313 kg/ha) was 9.0 and the “Herbicidal rating ABUTH” value (ABUTH (Velvetleaf) [1]; rate 0.0625 kg/ha) was 9.0. For the same compound, the “Herbicidal rating ABUTH” value (ABUTH (Velvetleaf) [1]; rate 0.1250 kg/ha) was 9.0, the “Herbicidal rating CHEAL” value ([2]; rate 0.0156 kg/ha) was 2.0 and the “Herbicidal rating CHEAL” value ([2]; rate 0.0313 kg/ha) was 6.0. For the same compound, the “Herbicidal rating CHEAL” value ([2]; rate 0.0625 kg/ha) was 9.0, the “Herbicidal rating CHEAL” value ([2]; rate 0.1250 kg/ha) was 9.0 and the “Herbicidal rating IPOHE” value ([3]; rate 0.0156 kg/ha) was 9.0. For the same compound, the “Herbicidal rating IPOHE” value ([3]; rate 0.0313 kg/ha) was 9.0, the “Herbicidal rating IPOHE” value ([3]; rate 0.0625 kg/ha) was 9.0 and the “Herbicidal rating IPOHE” value ([3]; rate 0.1250 kg/ha) was 9.0. For the same compound, the “Herbicidal rating ECHCG” value (ECHCG (Barnyardgrass) [4]; rate 0.0156 kg/ha) was 3.0, the “Herbicidal rating ECHCG” value (ECHCG (Barnyardgrass) [4]; rate 0.0313 kg/ha) was 5.0 and the “Herbicidal rating ECHCG” value (ECHCG (Barnyardgrass) [4]; rate 0.0625 kg/ha) was 4.0. The “Herbicidal rating ECHCG” value (ECHCG (Barnyardgrass) [4]; rate 0.1250 kg/ha) was 7.0, the “Herbicidal rating SETVI” value (SETVI (Foxtail, Green); rate 0.0156 kg/ha) was 0.0 and the “Herbicidal rating SETVI” value (SETVI (Foxtail, Green); rate 0.0313 kg/ha) was 6.0. For the same compound, the “Herbicidal rating SETVI” value (SETVI (Foxtail, Green); rate 0.0625 kg/ha) was 9.0, the “Herbicidal rating SETVI” value (SETVI (Foxtail, Green); rate 0.1250 kg/ha) was 9.0 and the “Herbicidal rating ORYSAT” value (ORYSAT (Rice, Tebonnet); rate 0.0156 kg/ha) was 2.0. For the same compound, the “Herbicidal rating ORYSAT” value (ORYSAT (Rice, Tebonnet); rate 0.0313 kg/ha) was 3.5, the “Herbicidal rating ORYSAT” value (ORYSAT (Rice, Tebonnet); rate 0.0625 kg/ha) was 4.5 and the “Herbicidal rating ORYSAT” value (ORYSAT (Rice, Tebonnet); rate 0.1250 kg/ha) was 4.5. The “Herbicidal rating ZEAMX” value (ZEAMX (Corn, Field) [5]; rate 0.0156 kg/ha) was 6.5, the “Herbicidal rating ZEAMX” value (ZEAMX (Corn, Field) [5]; rate 0.0313 kg/ha) was 7.0 and the “Herbicidal rating ZEAMX” value (ZEAMX (Corn, Field) [5]; rate 0.0625 kg/ha) was 7.0. For the same compound, the “Herbicidal rating ZEAMX” value (ZEAMX (Corn, Field) [5]; rate 0.1250 kg/ha) was 7.5, the “Preemergence herbicidal rating ABUTH” value (ABUTH (Velvetleaf) [6]; 0.0156 kg/ha) was 5.0 and the “Preemergence herbicidal rating ABUTH” value (ABUTH (Velvetleaf) [6]; 0.0313 kg/ha) was 9.0. The “Preemergence herbicidal rating ABUTH” value (ABUTH (Velvetleaf) [6]; 0.0625 kg/ha) was 9.0, the “Preemergence herbicidal rating ABUTH” value (ABUTH (Velvetleaf) [6]; 0.1250 kg/ha) was 9.0 and the “Preemergence herbicidal rating ABUTH” value (ABUTH (Velvetleaf) [6]; 0.2500 kg/ha) was 9.0. The “Preemergence herbicidal rating ABUTH” value (ABUTH (Velvetleaf) [6]; 0.5000 kg/ha) was 9.0, the “Preemergence herbicidal rating CASOB” value (CASOB (Sicklepod); 0.0156 kg/ha) was 0.0 and the “Preemergence herbicidal rating CASOB” value (CASOB (Sicklepod); 0.0313 kg/ha) was 0.0. For the same compound, the “Preemergence herbicidal rating CASOB” value (CASOB (Sicklepod); 0.0625 kg/ha) was 2.0, the “Preemergence herbicidal rating CASOB” value (CASOB (Sicklepod); 0.1250 kg/ha) was 1.0 and the “Preemergence herbicidal rating CASOB” value (CASOB (Sicklepod); 0.2500 kg/ha) was 7.0. The “Preemergence herbicidal rating CASOB” value (CASOB (Sicklepod); 0.5000 kg/ha) was 9.0, the “Preemergence herbicidal rating CHEAL” value ([7]; 0.0156 kg/ha) was 2.0 and the “Preemergence herbicidal rating CHEAL” value ([7]; 0.0313 kg/ha) was 9.0. The “Preemergence herbicidal rating CHEAL” value ([7]; 0.0625 kg/ha) was 9.0, the “Preemergence herbicidal rating CHEAL” value ([7]; 0.1250 kg/ha) was 9.0 and the “Preemergence herbicidal rating CHEAL” value ([7]; 0.2500 kg/ha) was 9.0. The “Preemergence herbicidal rating CHEAL” value ([7]; 0.5000 kg/ha) was 9.0, the “Preemergence herbicidal rating IPOHE” value ([8]; 0.0156 kg/ha) was 3.0 and the “Preemergence herbicidal rating IPOHE” value ([8]; 0.0313 kg/ha) was 6.0. The “Preemergence herbicidal rating IPOHE” value ([8]; 0.0625 kg/ha) was 9.0, the “Preemergence herbicidal rating IPOHE” value ([8]; 0.1250 kg/ha) was 9.0 and the “Preemergence herbicidal rating IPOHE” value ([8]; 0.2500 kg/ha) was 8.0. The “Preemergence herbicidal rating IPOHE” value ([8]; 0.5000 kg/ha) was 9.0, the “Preemergence herbicidal rating ECHCG” value (ECHCG (Barnyardgrass) [9]; 0.0156 kg/ha) was 0.0 and the “Preemergence herbicidal rating ECHCG” value (ECHCG (Barnyardgrass) [9]; 0.0313 kg/ha) was 0.0. For the same compound, the “Preemergence herbicidal rating ECHCG” value (ECHCG (Barnyardgrass) [9]; 0.0625 kg/ha) was 1.0, the “Preemergence herbicidal rating ECHCG” value (ECHCG (Barnyardgrass) [9]; 0.1250 kg/ha) was 2.0 and the “Preemergence herbicidal rating ECHCG” value (ECHCG (Barnyardgrass) [9]; 0.2500 kg/ha) was 9.0. For the same compound, the “Preemergence herbicidal rating ECHCG” value (ECHCG (Barnyardgrass) [9]; 0.5000 kg/ha) was 9.0, the “Preemergence herbicidal rating GLXMAW” value ([10]; 0.0156 kg/ha) was 1.0 and the “Preemergence herbicidal rating GLXMAW” value ([10]; 0.0313 kg/ha) was 1.0. For the same compound, the “Preemergence herbicidal rating GLXMAW” value ([10]; 0.0625 kg/ha) was 1.0, the “Preemergence herbicidal rating GLXMAW” value ([10]; 0.1250 kg/ha) was 2.0 and the “Preemergence herbicidal rating GLXMAW” value ([10]; 0.2500 kg/ha) was 9.0. For the same compound, the “Preemergence herbicidal rating GLXMAW” value ([10]; 0.5000 kg/ha) was 9.0, the “Preemergence herbicidal rating TRZAWR” value ([11]; 0.0156 kg/ha) was 0.0 and the “Preemergence herbicidal rating TRZAWR” value ([11]; 0.0313 kg/ha) was 0.0. For the same compound, the “Preemergence herbicidal rating TRZAWR” value ([11]; 0.0625 kg/ha) was 1.0, the “Preemergence herbicidal rating TRZAWR” value ([11]; 0.1250 kg/ha) was 1.0 and the “Preemergence herbicidal rating TRZAWR” value ([11]; 0.2500 kg/ha) was 4.0. The “Preemergence herbicidal rating TRZAWR” value ([11]; 0.5000 kg/ha) was 7.0, the “Preemergence herbicidal rating ZEAMX” value (ZEAMX (Corn, Field) [12]; 0.0156 kg/ha) was 0.0 and the “Preemergence herbicidal rating ZEAMX” value (ZEAMX (Corn, Field) [12]; 0.0313 kg/ha) was 0.0. For the same compound, the “Preemergence herbicidal rating ZEAMX” value (ZEAMX (Corn, Field) [12]; 0.0625 kg/ha) was 1.0, the “Preemergence herbicidal rating ZEAMX” value (ZEAMX (Corn, Field) [12]; 0.1250 kg/ha) was 2.0 and the “Preemergence herbicidal rating ZEAMX” value (ZEAMX (Corn, Field) [12]; 0.2500 kg/ha) was 5.0. For the same compound, the “Preemergence herbicidal rating ZEAMX” value (ZEAMX (Corn, Field) [12]; 0.5000 kg/ha) was 8.0.
